The values below come from US20220313698A1, “MODULATORS OF CYSTIC FIBROSIS TRANSMEMBRANE CONDUCTANCE REGULATOR” (Vertex Pharmaceuticals Incorporated, priority 2019, published 2022).

The target of test [1] is T1, CFTR-mediated chloride transport (Homo sapiens, UniProt P13569). In words: Corrector Assay A - membrane potential dye assay (enteroid cells). The settings on record: for Corrector Assay A % activity: % of chloride transport of triple combination control (1 μM (14S)-dispiro macrocycle + 3 μM tezacaftor + 300 nM ivacaftor); for EC50: read-out: Corrector Assay A EC50, human intestinal enteroid cells, 18-24 h incubation, acute 10 μM forskolin + 300 nM ivacaftor.

Test [2] has as its target T1, CFTR-mediated chloride transport. Nature of the test: Corrector Assay B - membrane potential dye assay (enteroid cells).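 On all read-outs here: methyl oxonol membrane potential fluorescence followed over 15 min after switching to chloride-free buffer with forskolin, 100 µM IBMX and ivacaftor, in presence of CaCC blockers.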 The settings on record: for Corrector Assay B % activity: % of chloride transport of triple combination control (3 μM Compound A + 3 μM tezacaftor + 300 nM ivacaftor); for EC50: read-out: Corrector Assay B EC50, human intestinal enteroid cells, 18-24 h incubation, acute 10 μM forskolin + 300 nM ivacaftor.

Some results are limits rather than exact numbers.

What is called EC50 is the concentration at which the effect is half-maximal. Take `CC(C)(C)c1ccc2c(n1)N1C[C@@H](CCC(c3ccccn3)Nc3cccc(n3)S(=O)(=O)NC2=O)CC1(C)C` (single isomer, unassigned) [Compound 293]: in test [1], the “Corrector Assay A % activity” value was “++ (++ is 30-60%)” and the EC50 is less than 1000 nM. In test [2], the “Corrector Assay B % activity” value was “+++ (+++ is >60%)” and the EC50 is less than 1000 nM.
Consider `CC1(C)CC2CCC(c3ccccc3)Nc3cccc(n3)S(=O)(=O)NC(=O)c3ccc(-n4ccc(OCCC5(C(F)(F)F)CC5)n4)nc3N1C2` (single isomer, unassigned) [Compound 383, 12,12-Dimethyl-17-phenyl-8-(3-{2-[1-(trifluoromethyl)cyclopropyl]ethoxy}-1H-pyrazol-1-yl)-2λ^6-thia-3,9,11,18,23-pentaazatetracyclo[17.3.1.111,14.05,10]tetracosa-1(22),5,7,9,19(23),20-hexaene-2,2,4-trione], for which, in test [1], the “Corrector Assay A % activity” value is recorded as “++ (++ is 30-60%)” and the EC50 is less than 1000 nM. Besides, in test [2], the “Corrector Assay B % activity” value is “+++ (+++ is >60%)” and the 50% effective concentration (EC50) was less than 1000 nM.
With `CC(C)(C)c1ccc2c(n1)N1C[C@@H](CC[C@@H](c3ccccc3)Nc3cccc(n3)S(=O)(=O)NC2=O)CC1(C)C` (single isomer, unassigned) [Compound 294], in test [1], the “Corrector Assay A % activity” value was “+++ (+++ is >60%)” and the EC50 is less than 1000 nM. Moreover, in test [2], the “Corrector Assay B % activity” value is reported as “+++ (+++ is >60%)” and the 50% effective concentration (EC50) is less than 1000 nM.
As to `CC(C)(C)c1ccc2c(n1)N1C[C@@H](CCC(c3cncnc3)Nc3cccc(n3)S(=O)(=O)NC2=O)CC1(C)C` (single isomer, unassigned) [Compound 297], in test [1], the “Corrector Assay A % activity” value is recorded as “+++ (+++ is >60%)” and the concentration giving a half-maximal response (EC50) was less than 1000 nM. In test [2], the “Corrector Assay B % activity” value is “+++ (+++ is >60%)” and the EC50 was less than 1000 nM.
As to `CCCC1(C)CC2CCCNc3cccc(n3)S(=O)(=O)NC(=O)c3ccc(-n4ccc(OCCC5(C(F)(F)F)CC5)n4)nc3N1C2` (single isomer, unassigned) [Compound 365, 12-methyl-12-propyl-8-(3-{2-[1-(trifluoromethyl)cyclopropyl]ethoxy}-1H-pyrazol-1-yl)-2λ^6-thia-3,9,11,18,23-pentaazatetracyclo[17.3.1.111,14.05,10]tetracosa-1(22),5,7,9,19(23),20-hexaene-2,2,4-trione], the “Corrector Assay B % activity” value in test [2] is given as “+ (+ is <30%)”.
In the case of `CC1(C)CC2CC(c3ccccc3)CNc3cccc(n3)S(=O)(=O)NC(=O)c3ccc(-n4ccc(OCCC5(C(F)(F)F)CC5)n4)nc3N1C2` (single isomer, unassigned) [Compound 389, 12,12-dimethyl-16-phenyl-8-(3-{2-[1-(trifluoromethyl)cyclopropyl]ethoxy}-1H-pyrazol-1-yl)-2λ^6-thia-3,9,11,18,23-pentaazatetracyclo[17.3.1.111,14.05,10]tetracosa-1(22),5,7,9,19(23),20-hexaene-2,2,4-trione], in test [1], the “Corrector Assay A % activity” value was “+++ (+++ is >60%)” and the half-maximal effective concentration (EC50) is less than 1000 nM. Besides, in test [2], the “Corrector Assay B % activity” value is given as “+++ (+++ is >60%)” and the EC50 was less than 1000 nM.
As for `CC1(C)C[C@@H]2CCC(c3ccccc3)Nc3cccc(n3)S(=O)(=O)NC(=O)c3cccnc3N1C2` (single isomer, unassigned) [Compound 288], in test [2], the “Corrector Assay B % activity” value is recorded as “+++ (+++ is >60%)” and the EC50 was in the range of 1000 to 3000 nM.
Turning to `CC1(C)C[C@@H]2CCCN(C[C@H](O)CO)c3cccc(n3)S(=O)(=O)NC(=O)c3ccc(-n4ccc(OCCC5(C(F)(F)F)CC5)n4)nc3N1C2` (single isomer, unassigned) [Compound 381], in test [2], the “Corrector Assay B % activity” value is “+++ (+++ is >60%)” and the half-maximal effective concentration (EC50) is less than 1000 nM.
Take `CC1(C)C[C@@H]2CCC(c3cncnc3)Nc3cccc(n3)S(=O)(=O)NC(=O)c3ccc(-n4ccc(OCCC5(C(F)(F)F)CC5)n4)nc3N1C2` (single isomer, unassigned) [Compound 375]: in test [2], the “Corrector Assay B % activity” value is recorded as “+++ (+++ is >60%)” and the concentration giving a half-maximal response (EC50) is less than 1000 nM.
The matching figures for `CC1(C)C[C@@H]2CCC(c3ccc(C(=O)O)cc3)Nc3cccc(n3)S(=O)(=O)NC(=O)c3ccc(-n4ccc(OCCC5(C(F)(F)F)CC5)n4)nc3N1C2` (single isomer, unassigned) [Compound 370]: “+++ (+++ is >60%)” and 1000 to 3000 nM.
The matching figures for `CC1(C)C[C@@H]2CCCN(C[C@@H](O)CO)c3cccc(n3)S(=O)(=O)NC(=O)c3ccc(-n4ccc(OCCC5(C(F)(F)F)CC5)n4)nc3N1C2` (single isomer, unassigned) [Compound 379]: “+++ (+++ is >60%)” and less than 1000 nM.
On the same counts, the results for `CC(C)C1CC[C@@H]2CN(c3nc(-n4ccc(OCCC5(C(F)(F)F)CC5)n4)ccc3C(=O)NS(=O)(=O)c3cccc(n3)N1)C(C)(C)C2` (single isomer, unassigned) [Compound 358] are “+++ (+++ is >60%)” and less than 1000 nM.
With `CC1(C)CC2CN1c1nc(-n3ccc(OCCC4(C(F)(F)F)CC4)n3)ccc1C(=O)NS(=O)(=O)c1cccc(n1)NCCC2c1ccccc1` (single isomer, unassigned) [Compound 386, 12,12-Dimethyl-15-phenyl-8-(3-{2-[1-(trifluoromethyl)cyclopropyl]ethoxy}-1H-pyrazol-1-yl)-2λ^6-thia-3,9,11,18,23-pentaazatetracyclo[17.3.1.111,14.05,10]tetracosa-1(22),5,7,9,19(23),20-hexaene-2,2,4-trione], in test [2], the “Corrector Assay B % activity” value is recorded as “++ (++ is 30-60%)” and the EC50 is less than 1000 nM.
Consider `CC1(C)C[C@@H]2CCCN(CCC#N)c3cccc(n3)S(=O)(=O)NC(=O)c3ccc(-n4ccc(OCCC5(C(F)(F)F)CC5)n4)nc3N1C2` [Compound 377], for which, in test [2], the “Corrector Assay B % activity” value is recorded as “+++ (+++ is >60%)” and the EC50 was less than 1000 nM.
The matching figures for `CC1(C)C[C@@H]2CCCN(CC3COC3)c3cccc(n3)S(=O)(=O)NC(=O)c3ccc(-n4ccc(OCCC5(C(F)(F)F)CC5)n4)nc3N1C2` [Compound 359]: “+++ (+++ is >60%)” and less than 1000 nM.
The matching figures for `CC1(C)C[C@@H]2CCCN(CCCCCC#N)c3cccc(n3)S(=O)(=O)NC(=O)c3ccc(-n4ccc(OCCC5(C(F)(F)F)CC5)n4)nc3N1C2` [Compound 369]: “++ (++ is 30-60%)” and less than 1000 nM.
Take `CC1(C)CC2CC(c3ccccc3)CNc3cccc(n3)S(=O)(=O)NC(=O)c3ccc(-n4ccc(OCCC5(C(F)(F)F)CC5)n4)nc3N1C2` (single isomer, unassigned) [Compound 390, 12,12-dimethyl-16-phenyl-8-(3-{2-[1-(trifluoromethyl)cyclopropyl]ethoxy}-1H-pyrazol-1-yl)-2λ^6-thia-3,9,11,18,23-pentaazatetracyclo[17.3.1.111,14.05,10]tetracosa-1(22),5,7,9,19(23),20-hexaene-2,2,4-trione]: in test [2], the “Corrector Assay B % activity” value was “+++ (+++ is >60%)” and the EC50 is less than 1000 nM.
The matching figures for `CC(C)(C)c1ccc2c(n1)N1C[C@@H](CCC(c3ccc(C(=O)O)cc3)Nc3cccc(n3)S(=O)(=O)NC2=O)CC1(C)C` (single isomer, unassigned) [Compound 291]: “++ (++ is 30-60%)” and 1000 to 3000 nM.
Turning to `CC1(C)C[C@@H]2CCC(c3ccccc3)Nc3cccc(n3)S(=O)(=O)NC(=O)c3cccnc3N1C2` (single isomer, unassigned) [Compound 289], in test [2], the “Corrector Assay B % activity” value is reported as “+++ (+++ is >60%)” and the EC50 is less than 1000 nM.
Take `CCCC1(C)CC2CCCNc3cccc(n3)S(=O)(=O)NC(=O)c3ccc(-n4ccc(OCCC5(C(F)(F)F)CC5)n4)nc3N1C2` (single isomer, unassigned) [Compound 366, 12-methyl-12-propyl-8-(3-{2-[1-(trifluoromethyl)cyclopropyl]ethoxy}-1H-pyrazol-1-yl)-2λ^6-thia-3,9,11,18,23-pentaazatetracyclo[17.3.1.111,14.05,10]tetracosa-1(22),5,7,9,19(23),20-hexaene-2,2,4-trione]: the “Corrector Assay B % activity” value in test [2] was “+ (+ is <30%)”.
In the case of `CCCC1(C)CC2CCCNc3cccc(n3)S(=O)(=O)NC(=O)c3ccc(-n4ccc(OCCC5(C(F)(F)F)CC5)n4)nc3N1C2` (single isomer, unassigned) [Compound 368, 12-methyl-12-propyl-8-(3-{2-[1-(trifluoromethyl)cyclopropyl]ethoxy}-1H-pyrazol-1-yl)-2λ^6-thia-3,9,11,18,23-pentaazatetracyclo[17.3.1.111,14.05,10]tetracosa-1(22),5,7,9,19(23),20-hexaene-2,2,4-trione], in test [2], the “Corrector Assay B % activity” value is on record as “+++ (+++ is >60%)” and the 50% effective concentration (EC50) was less than 1000 nM.
Regarding `Cn1cnnc1CN1CCC[C@@H]2CN(c3nc(-n4ccc(OCCC5(C(F)(F)F)CC5)n4)ccc3C(=O)NS(=O)(=O)c3cccc1n3)C(C)(C)C2` [Compound 373], in test [2], the “Corrector Assay B % activity” value was “++ (++ is 30-60%)” and the EC50 is less than 1000 nM.
`CC1(C)C[C@@H]2CCC(c3cncnc3)Nc3cccc(n3)S(=O)(=O)NC(=O)c3ccc(-n4ccc(OCCC5(C(F)(F)F)CC5)n4)nc3N1C2` (single isomer, unassigned) [Compound 374]: in test [2], the “Corrector Assay B % activity” value is reported as “+++ (+++ is >60%)” and the 50% effective concentration (EC50) is less than 1000 nM.
Turning to `CC(C)(C)c1ccc2c(n1)N1C[C@@H](CCC(c3cncnc3)Nc3cccc(n3)S(=O)(=O)NC2=O)CC1(C)C` (single isomer, unassigned) [Compound 298], in test [2], the “Corrector Assay B % activity” value is given as “+++ (+++ is >60%)” and the EC50 was less than 1000 nM.
